Results taken from US20260265220A1, “GALPHA12 INHIBITORS AND METHODS USING SAME” (RUTGERS, THE STATE UNIVERSITY OF NEW JERSEY, priority 2022, published 2026).
Values joined by “and” are separate entries in the source; they are usually repeats but may differ in a detail not shown here. Identical values can stand only once. “Also recorded” adds a separate entry of the source. Like-named read-outs stand apart in the source and are kept apart here.

Key:
Gα12 = target: T1, Gα12 (Homo sapiens, UniProt Q03113); assay: Gα12 luciferase reporter assay in hTERT-SRE immortalized airway smooth muscle cells, carbachol stimulated; assay type: cell-based; details: carbachol (CCh) stimulated, dose response
T1 sequence (Q03113 1-381): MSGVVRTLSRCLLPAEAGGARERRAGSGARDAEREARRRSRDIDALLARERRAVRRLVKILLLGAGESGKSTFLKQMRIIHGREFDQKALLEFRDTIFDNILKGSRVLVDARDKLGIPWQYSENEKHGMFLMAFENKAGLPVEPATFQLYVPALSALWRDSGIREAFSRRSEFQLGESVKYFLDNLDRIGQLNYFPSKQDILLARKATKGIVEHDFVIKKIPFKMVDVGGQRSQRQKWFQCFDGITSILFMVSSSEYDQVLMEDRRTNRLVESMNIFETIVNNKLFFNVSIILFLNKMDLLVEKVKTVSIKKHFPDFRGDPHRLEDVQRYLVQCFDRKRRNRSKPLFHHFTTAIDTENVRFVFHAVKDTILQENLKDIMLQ
Source text: FIGS. 1A-1C show an experimental approach to the identification of Gα12 modulators using hTERT-SRE human telomerase reverse transcriptase immortalized airway smooth muscle cells. FIG. 1A: provides a schematic representation of Gα12-activated luciferase reporter. […] FIG. 1C: provides a detailed schematic showing the downstream effects of Gα12/13 activation and/or inhibition, wherein serum response element (SRE) may be detected by a luciferase assay, and pAKT and pMLC may be detected by Western blotting. A Gα12 luciferase reporter assay was used to evaluate the potential of analogues of compound 1 as bronchodilators (FIGS. 2A-2C), wherein the assay utilized hTERT-SRE telomerase reverse transcriptase immortalized airway smooth muscle cells. In certain embodiments, the Gα12 pathway is activated with carbachol (CCh), resulting in downstream transcription of a […]/luciferase fusion protein (FIG. 1A), and consequently, a fluorescence signal (FIG. 1B). In certain embodiments, detection of a decrease in observed fluorescent signal indicates inhibition of Gα12. Further, activation of the Gα12 pathway results in elevated levels of phosphorylated AKT (pAKT) and MLC (pMLC) (FIG. 1C). In certain embodiments, detection of a decrease in pAKT and/or pMLC indicates inhibition of Gα12.

[1] = system: MLC phosphorylation (pMLC); assay: Immunoblot analysis of myosin light chain phosphorylation (pMLC) in airway smooth muscle cells; assay type: cell-based, human; details: for agonist specificity of the effect on pMLC activation: carbachol versus histamine; for potency and efficacy on carbachol-induced pMLC activation: relative to the parent compound 1 (BDF)
Description: (§1) Compounds 1-3 were evaluated for inhibition of AKT and MLC phosphorylation. As described elsewhere herein, phosphorylation of AKT and/or MLC can occur with activation of the Gα12 pathway. Accordingly, in certain embodiments, detection of a decrease in pAKT and/or pMLC indicates inhibition of Gα12.
(§2) The immunoblot analysis of phosphorylation of myosin light chain (pMLC) was used as a surrogate for ASM contraction. In parallel, phosphorylation of AKT was analogously assessed. AKT is a downstream substrate for phosphoinositide 3-kinase (PI3K) activity, can modulate the activation of the Gα12 pathway in primary human airway smooth muscle cells. These cells are the pivotal cells regulating bronchomotor tone in asthma and chronic obstructive pulmonary disease (COPD) which is emphysema or chronic bronchitis.
(§3) The analogues described herein were further assessed for potency and efficacy in inhibiting AKT and pMLC phosphorylation induced by contractile agonists, carbachol, or histamine. These contractile agonists are pivotal in causing airway smooth muscle contraction and airway obstruction in asthma and COPD.

[2] = system: AKT phosphorylation (pAKT); assay: Immunoblot analysis of AKT phosphorylation (pAKT) in airway smooth muscle cells; assay type: cell-based, human
Description: as §1, §2, §3

ATR/ATRIP(h) = target: T2, ATR/ATRIP(h) (Homo sapiens, UniProt Q13535); assay: Eurofins in vitro kinase activity assay; assay type: biochemical; details: read-out: ATR/ATRIP(h) kinase activity (human kinase inhibition data)
T2 construct: purchased Eurofins
Description: (§4) Using the Eurofins™ platform, a kinase activity assay was performed to identify human kinases inhibited by compound 1. To determine the effects of the compound on kinase activity, varying concentrations of compound 1 (1, 10 and 100 μM) were used with one technical replicate in a standard in vitro kinase activation assay.
(§5) This platform was used to determine the effects of compound 1 on the activity of 113 unique human kinases. Thresholds for kinase activity of interest was set at less than or equal to 60% […] (i.e., for antagonists) or enhanced activity at or above 140% (i.e., for agonists). Further, the validity of the results were confirmed by the occurrence of a dose-dependent response.

Fms(h) = target: T3, Fms(h) (Homo sapiens, UniProt P07333); assay: Eurofins in vitro kinase activity assay; assay type: biochemical; details: read-out: Fms(h) kinase activity (human kinase inhibition data)
T3 construct: purchased Eurofins
T3 sequence (P07333 20-972): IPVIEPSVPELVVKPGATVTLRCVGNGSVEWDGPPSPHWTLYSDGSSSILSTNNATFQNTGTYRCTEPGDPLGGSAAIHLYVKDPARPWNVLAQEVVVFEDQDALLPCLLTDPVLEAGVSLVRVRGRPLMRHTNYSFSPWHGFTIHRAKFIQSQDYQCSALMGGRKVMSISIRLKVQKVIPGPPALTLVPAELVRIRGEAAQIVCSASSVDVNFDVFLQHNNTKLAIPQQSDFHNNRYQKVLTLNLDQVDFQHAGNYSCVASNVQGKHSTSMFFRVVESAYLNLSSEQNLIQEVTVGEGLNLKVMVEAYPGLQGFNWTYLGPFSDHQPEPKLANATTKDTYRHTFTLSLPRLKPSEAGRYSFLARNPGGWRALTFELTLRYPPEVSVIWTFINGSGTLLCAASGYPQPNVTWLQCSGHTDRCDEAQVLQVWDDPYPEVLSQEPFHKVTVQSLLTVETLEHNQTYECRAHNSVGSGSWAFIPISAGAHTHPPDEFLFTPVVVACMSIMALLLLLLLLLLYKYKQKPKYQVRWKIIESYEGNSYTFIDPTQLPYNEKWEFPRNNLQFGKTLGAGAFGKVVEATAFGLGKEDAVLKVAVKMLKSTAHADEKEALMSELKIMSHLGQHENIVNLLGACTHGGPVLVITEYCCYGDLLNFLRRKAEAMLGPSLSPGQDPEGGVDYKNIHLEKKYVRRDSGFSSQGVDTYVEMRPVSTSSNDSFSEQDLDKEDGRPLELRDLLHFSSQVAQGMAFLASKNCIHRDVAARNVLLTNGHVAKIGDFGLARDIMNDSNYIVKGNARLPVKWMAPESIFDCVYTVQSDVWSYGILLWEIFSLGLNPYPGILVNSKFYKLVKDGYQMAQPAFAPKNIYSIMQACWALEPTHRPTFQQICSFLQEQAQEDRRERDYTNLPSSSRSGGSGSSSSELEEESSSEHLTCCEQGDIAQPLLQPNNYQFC
Description: as §4, §5

IGF-1R(h) = target: T4, IGF-1R(h) (Homo sapiens, UniProt P08069); assay: Eurofins in vitro kinase activity assay; assay type: biochemical; details: read-out: IGF-1R(h) kinase activity (human kinase inhibition data)
T4 construct: purchased Eurofins
T4 sequence (P08069 31-1367): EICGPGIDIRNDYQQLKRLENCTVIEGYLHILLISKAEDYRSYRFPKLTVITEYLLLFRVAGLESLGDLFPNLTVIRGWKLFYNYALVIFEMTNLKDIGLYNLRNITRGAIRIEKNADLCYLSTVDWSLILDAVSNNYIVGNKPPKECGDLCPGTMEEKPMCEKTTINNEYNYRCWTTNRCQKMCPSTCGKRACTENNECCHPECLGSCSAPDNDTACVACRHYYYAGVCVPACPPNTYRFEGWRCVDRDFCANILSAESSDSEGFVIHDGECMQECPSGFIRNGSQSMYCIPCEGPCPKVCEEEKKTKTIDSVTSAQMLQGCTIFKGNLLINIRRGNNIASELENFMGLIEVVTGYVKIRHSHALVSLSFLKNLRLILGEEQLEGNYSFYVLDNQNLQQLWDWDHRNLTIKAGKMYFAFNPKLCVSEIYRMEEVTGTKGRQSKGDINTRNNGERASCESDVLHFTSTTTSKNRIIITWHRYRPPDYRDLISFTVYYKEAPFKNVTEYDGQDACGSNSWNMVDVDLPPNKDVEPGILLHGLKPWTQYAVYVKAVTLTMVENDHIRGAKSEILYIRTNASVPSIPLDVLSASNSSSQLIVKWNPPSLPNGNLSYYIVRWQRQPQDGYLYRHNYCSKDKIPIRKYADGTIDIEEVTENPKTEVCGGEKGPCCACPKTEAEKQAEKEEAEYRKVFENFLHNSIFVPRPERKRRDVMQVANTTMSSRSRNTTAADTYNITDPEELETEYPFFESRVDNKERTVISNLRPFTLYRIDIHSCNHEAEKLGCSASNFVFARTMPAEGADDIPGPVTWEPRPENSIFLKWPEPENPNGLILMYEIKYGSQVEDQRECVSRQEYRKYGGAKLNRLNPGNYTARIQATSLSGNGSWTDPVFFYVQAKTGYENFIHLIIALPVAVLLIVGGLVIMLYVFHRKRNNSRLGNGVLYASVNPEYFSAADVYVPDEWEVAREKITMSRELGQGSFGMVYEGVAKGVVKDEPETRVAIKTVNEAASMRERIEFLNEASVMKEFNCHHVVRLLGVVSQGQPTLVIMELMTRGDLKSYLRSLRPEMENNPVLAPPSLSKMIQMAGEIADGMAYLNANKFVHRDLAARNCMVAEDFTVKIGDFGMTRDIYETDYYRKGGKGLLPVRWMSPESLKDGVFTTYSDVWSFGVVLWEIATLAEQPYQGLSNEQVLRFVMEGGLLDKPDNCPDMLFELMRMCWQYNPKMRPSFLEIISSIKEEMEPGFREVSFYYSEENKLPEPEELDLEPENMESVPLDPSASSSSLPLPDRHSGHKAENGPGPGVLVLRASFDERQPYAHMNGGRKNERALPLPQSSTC
Description: as §4, §5

MAPKAP-K2(h) = target: T5, MAPKAP-K2(h) (Homo sapiens, UniProt P49137); assay: Eurofins in vitro kinase activity assay; assay type: biochemical
T5 construct: purchased Eurofins
Description: as §4, §5

PI3Kδ = target: T6, PI3Kδ (Homo sapiens, UniProt O00329); assay: Eurofins in vitro kinase activity assay; assay type: biochemical
T6 construct: purchased Eurofins
T6 sequence (O00329 whole entry): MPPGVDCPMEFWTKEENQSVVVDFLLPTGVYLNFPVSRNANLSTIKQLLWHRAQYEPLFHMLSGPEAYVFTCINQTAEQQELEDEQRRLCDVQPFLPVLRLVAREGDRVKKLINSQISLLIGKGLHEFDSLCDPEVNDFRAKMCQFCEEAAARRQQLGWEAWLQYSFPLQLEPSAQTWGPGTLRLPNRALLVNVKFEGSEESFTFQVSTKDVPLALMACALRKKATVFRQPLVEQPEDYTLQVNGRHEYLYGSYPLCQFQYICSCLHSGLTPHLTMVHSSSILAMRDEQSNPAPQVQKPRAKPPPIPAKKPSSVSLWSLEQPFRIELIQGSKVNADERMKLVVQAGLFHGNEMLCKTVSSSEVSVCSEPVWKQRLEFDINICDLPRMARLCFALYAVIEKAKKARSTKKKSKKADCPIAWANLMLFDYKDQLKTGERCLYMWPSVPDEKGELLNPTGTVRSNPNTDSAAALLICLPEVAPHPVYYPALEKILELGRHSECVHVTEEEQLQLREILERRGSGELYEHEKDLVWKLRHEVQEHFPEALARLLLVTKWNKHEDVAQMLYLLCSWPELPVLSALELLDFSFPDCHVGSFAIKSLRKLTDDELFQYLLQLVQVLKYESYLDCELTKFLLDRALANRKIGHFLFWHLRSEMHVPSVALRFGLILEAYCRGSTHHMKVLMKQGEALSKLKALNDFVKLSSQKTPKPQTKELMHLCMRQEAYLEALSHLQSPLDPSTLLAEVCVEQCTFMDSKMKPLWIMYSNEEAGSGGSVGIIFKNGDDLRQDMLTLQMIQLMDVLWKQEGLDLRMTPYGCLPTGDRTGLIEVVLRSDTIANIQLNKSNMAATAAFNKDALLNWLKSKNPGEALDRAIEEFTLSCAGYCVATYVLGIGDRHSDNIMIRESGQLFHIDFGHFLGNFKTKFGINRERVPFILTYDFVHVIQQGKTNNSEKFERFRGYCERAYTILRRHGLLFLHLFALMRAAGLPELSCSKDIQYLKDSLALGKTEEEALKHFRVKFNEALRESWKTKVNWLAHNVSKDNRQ
T6 sequence (P27986 whole entry partner): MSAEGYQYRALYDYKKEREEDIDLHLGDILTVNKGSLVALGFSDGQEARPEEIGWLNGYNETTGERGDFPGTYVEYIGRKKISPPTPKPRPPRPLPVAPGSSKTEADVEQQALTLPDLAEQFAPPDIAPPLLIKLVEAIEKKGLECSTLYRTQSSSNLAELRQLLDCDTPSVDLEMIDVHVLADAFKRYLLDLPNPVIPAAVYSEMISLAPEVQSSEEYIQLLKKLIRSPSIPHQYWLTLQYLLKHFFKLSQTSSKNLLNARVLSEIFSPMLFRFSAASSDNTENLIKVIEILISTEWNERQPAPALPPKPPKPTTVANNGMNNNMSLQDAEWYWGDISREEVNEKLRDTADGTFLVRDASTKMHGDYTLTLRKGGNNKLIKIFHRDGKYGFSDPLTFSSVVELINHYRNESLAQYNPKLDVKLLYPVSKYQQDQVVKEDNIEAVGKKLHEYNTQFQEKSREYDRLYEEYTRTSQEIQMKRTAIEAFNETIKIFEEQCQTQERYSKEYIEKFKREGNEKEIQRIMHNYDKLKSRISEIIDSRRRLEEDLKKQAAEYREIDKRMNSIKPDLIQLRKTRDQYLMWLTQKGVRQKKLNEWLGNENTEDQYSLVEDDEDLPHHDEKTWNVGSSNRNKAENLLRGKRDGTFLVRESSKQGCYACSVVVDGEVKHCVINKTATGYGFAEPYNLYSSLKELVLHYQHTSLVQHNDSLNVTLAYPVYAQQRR
Description: as §4, §5

PRAK(h)/MAPKAPK5 = target: T7, PRAK(h)/MAPKAPK5 (Homo sapiens, UniProt Q8IW41); assay: Eurofins in vitro kinase activity assay; assay type: biochemical
T7 construct: purchased Eurofins
T7 sequence (Q8IW41 1-473): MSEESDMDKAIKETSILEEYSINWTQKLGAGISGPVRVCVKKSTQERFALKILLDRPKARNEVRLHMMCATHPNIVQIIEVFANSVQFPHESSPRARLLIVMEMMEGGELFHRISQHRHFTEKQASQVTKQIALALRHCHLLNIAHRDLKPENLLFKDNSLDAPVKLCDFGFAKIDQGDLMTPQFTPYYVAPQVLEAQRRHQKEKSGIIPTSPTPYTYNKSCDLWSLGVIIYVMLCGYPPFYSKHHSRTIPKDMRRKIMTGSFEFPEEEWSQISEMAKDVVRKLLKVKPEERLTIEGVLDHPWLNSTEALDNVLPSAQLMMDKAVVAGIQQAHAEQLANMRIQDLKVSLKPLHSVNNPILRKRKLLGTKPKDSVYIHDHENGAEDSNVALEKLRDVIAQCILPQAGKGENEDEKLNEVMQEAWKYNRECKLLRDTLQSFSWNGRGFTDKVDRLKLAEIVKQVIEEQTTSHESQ
Description: as §4, §5

TrkA(h) = target: T8, TrkA(h) (Homo sapiens, UniProt P04629); assay: Eurofins in vitro kinase activity assay; assay type: biochemical; details: read-out: TrkA(h) kinase activity (human kinase inhibition data)
T8 construct: purchased Eurofins
T8 sequence (P04629 33-796): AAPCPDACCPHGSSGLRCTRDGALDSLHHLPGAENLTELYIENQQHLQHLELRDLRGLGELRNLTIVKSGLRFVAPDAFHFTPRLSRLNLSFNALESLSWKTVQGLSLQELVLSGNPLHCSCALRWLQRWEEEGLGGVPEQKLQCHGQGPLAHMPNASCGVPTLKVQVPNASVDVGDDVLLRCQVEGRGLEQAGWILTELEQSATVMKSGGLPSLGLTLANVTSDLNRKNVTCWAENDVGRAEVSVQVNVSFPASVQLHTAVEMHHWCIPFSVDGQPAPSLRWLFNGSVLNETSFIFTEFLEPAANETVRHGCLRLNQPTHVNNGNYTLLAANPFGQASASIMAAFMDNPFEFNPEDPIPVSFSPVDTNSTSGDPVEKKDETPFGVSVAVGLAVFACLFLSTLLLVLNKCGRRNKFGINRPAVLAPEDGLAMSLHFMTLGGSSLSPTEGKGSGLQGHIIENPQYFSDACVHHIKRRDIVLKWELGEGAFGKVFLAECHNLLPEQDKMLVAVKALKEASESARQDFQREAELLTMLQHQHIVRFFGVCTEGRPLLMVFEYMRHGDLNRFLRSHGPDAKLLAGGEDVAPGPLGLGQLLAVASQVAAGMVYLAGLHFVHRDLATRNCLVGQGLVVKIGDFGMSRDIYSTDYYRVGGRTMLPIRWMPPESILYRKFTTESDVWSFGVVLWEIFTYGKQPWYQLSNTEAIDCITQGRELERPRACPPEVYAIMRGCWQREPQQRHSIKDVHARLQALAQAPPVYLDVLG
Description: as §4, §5

mTOR(h) = target: T9, mTOR(h) (Homo sapiens, UniProt P42345); assay: Eurofins in vitro kinase activity assay; assay type: biochemical; details: read-out: mTOR(h) kinase activity (human kinase inhibition data)
T9 construct: purchased Eurofins
Description: as §4, §5

113 unique human kinases = assay: Eurofins kinase activity panel; assay type: biochemical; details: 1, 10 and 100 μM
Description: as §4, §5

[3] = compound at 100 μM (FIGS. 4A-4B)
[4] = compound at 100 μM (FIGS. 4C-4D)

With `CC(C)(NC(=O)Cc1ccccc1F)C(=O)N1CCOCC(Cc2cccc3ccncc23)C1` (centres unmarked) [BDH, 2-(2-fluorophenyl)-N-(1-(6-(isoquinolin-8-ylmethyl)-1,4-oxazepan-4-yl)-2-methyl-1-oxopropan-2-yl)acetamide, reference compound] the “modulation of Gα12 luciferase reporter signal (agonist/antagonist)” value (from here on “modulation … (agonist/antagonist)”) (Gα12) was “dose-dependent activation”.
`Cc1ccc(Cc2ccc(C3CN(C(=O)c4cnc(C)cn4)CCO3)nc2)cc1` (centres unmarked) [Compound 2, (2-(5-(4-methylbenzyl)pyridin-2-yl)morpholino)(5-methylpyrazin-2-yl)methanone] was tested, and the “modulation … (agonist/antagonist)” value (Gα12) was “Gα12 antagonists”, the “agonist specificity of the effect on pMLC activation” value [1] was “specific for carbachol rather than histamine” and the “potency and efficacy on carbachol-induced pMLC activation” value [1] was “improved potency and efficacy”.
With `CCN1CCC(CC(=O)N2CCOC(c3ccc(-c4cccc(OC)c4)cn3)C2)CC1` (centres unmarked) [Compound 3, 2-(1-ethylpiperidin-4-yl)-1-(2-(5-(3-methoxyphenyl)pyridin-2-yl)morpholino)ethan-1-one] the “modulation … (agonist/antagonist)” value (Gα12) was “Gα12 antagonists”, the pAKT ([2]; compound at 10 μM (FIGS. 4A-4B)) was “decrease; also recorded: significantly decreased” and the pAKT [2, 3] was “decrease; also recorded: significantly decreased”. The “agonist specificity of the effect on pMLC activation” value [1] was “specific for carbachol rather than histamine”, the pMLC ([1]; compound at 10 μM (FIGS. 4C-4D)) was “decrease; also recorded: significantly decreased” and the pMLC [1, 4] was “decrease; also recorded: significantly decreased”. For the same molecule, the “potency and efficacy on carbachol-induced pMLC activation” value [1] was “improved potency and efficacy”.
For `FC(F)(F)c1cccc(Cc2ccc(C3CN(Cc4cccnc4)CCO3)nc2)c1` (centres unmarked) [Compound 5, 4-(pyridin-3-ylmethyl)-2-(5-(3-(trifluoromethyl)benzyl)pyridin-2-yl)morpholine], the “inhibition of AKT phosphorylation (pAKT) by agonists” value ([2]; contractile agonists carbachol or histamine) was “inactive” and the “agonist-induced pMLC activation” value ([1]; contractile agonists carbachol or histamine, FIGS. 6A-6B) was “inactive”.
`O=C(CCn1ncc2ccccc21)N1CCOC(c2ccc(Cc3ccc(F)cc3)cn2)C1` (centres unmarked) [compound 1, 1-(2-(5-(4-fluorobenzyl)pyridin-2-yl)morpholino)-3-(1H-indazol-1-yl)propan-1-one] gave an activity at 1 µM (ATR/ATRIP(h); compound at 1 μM) of 101%, an activity at 10 µM (ATR/ATRIP(h); compound at 10 μM) of 91% and an activity at 100 µM (ATR/ATRIP(h); compound at 100 μM) of 65%. The activity at 1 µM (Fms(h); compound at 1 μM) was 95%, the activity at 10 µM (Fms(h); compound at 10 μM) was 94% and the activity at 100 µM (Fms(h); compound at 100 μM) was 64%. The activity at 1 µM (IGF-1R(h); compound at 1 μM) was 103%, the activity at 10 µM (IGF-1R(h); compound at 10 μM) was 91% and the activity at 100 µM (IGF-1R(h); compound at 100 μM) was 61%. The “MAPKAP-K2 inhibition, dose dependence” value (MAPKAP-K2(h); 1, 10 and 100 μM) was “inhibited in a dose-dependent manner”, the activity at 1 µM (MAPKAP-K2(h); compound at 1 μM, read-out: MAPKAP-K2(h) kinase activity (human kinase inhibition data)) was 90% and the activity at 10 µM (MAPKAP-K2(h); compound at 10 μM, read-out: MAPKAP-K2(h) kinase activity (human kinase inhibition data)) was 77%. For the same molecule, the activity at 100 µM (MAPKAP-K2(h); compound at 100 μM, read-out: MAPKAP-K2(h) kinase activity (human kinase inhibition data)) was 65%, the “Aggregate Mean (of raw counts)” value (PI3Kδ; compound at 1 μM) was 16175 and the activity at 1 µM (PI3Kδ; compound at 1 μM, read-out: Kinase Activity (%), mean of replicates) was 91%. For the same molecule, the “Raw Counts” value (PI3Kδ; compound at 1 μM, single replicates) was 15209.80926 and 17139.70182, the “Kinase Activity (%)” value (PI3Kδ; compound at 1 μM, single replicates, 1 µM) was 86% and the activity at 1 µM (PI3Kδ; compound at 1 μM, single replicates, read-out: Kinase Activity (%)) was 95%. The “Aggregate Mean (of raw counts)” value (PI3Kδ; compound at 10 μM) was 15960, the activity at 10 µM (PI3Kδ; compound at 10 μM, read-out: Kinase Activity (%), mean of replicates) was 92% and the “Raw Counts” value (PI3Kδ; compound at 10 μM, single replicates) was 15948.27586 and 15971.06288. The activity at 10 µM (PI3Kδ; compound at 10 μM, single replicates, read-out: Kinase Activity (%)) was 92%, the “Aggregate Mean (of raw counts)” value (PI3Kδ; compound at 100 μM) was 17900 and the activity at 100 µM (PI3Kδ; compound at 100 μM, read-out: Kinase Activity (%), mean of replicates) was 83%. For the same molecule, the “Raw Counts” value (PI3Kδ; compound at 100 μM, single replicates) was 17495.26814 and 18305.46265, the “Kinase Activity (%)” value (PI3Kδ; compound at 100 μM, single replicates, 100 µM) was 81% and the activity at 100 µM (PI3Kδ; compound at 100 μM, single replicates, read-out: Kinase Activity (%)) was 85%. The “PRAK/MAPKAPK5 inhibition, dose dependence” value (PRAK(h)/MAPKAPK5; 1, 10 and 100 μM) was “inhibited in a dose-dependent manner”, the activity at 1 µM (PRAK(h)/MAPKAPK5; compound at 1 μM, read-out: PRAK(h)/MAPKAPK5 kinase activity (human kinase inhibition data)) was 115% and the activity at 10 µM (PRAK(h)/MAPKAPK5; compound at 10 μM, read-out: PRAK(h)/MAPKAPK5 kinase activity (human kinase inhibition data)) was 92%. For the same molecule, the activity at 100 µM (PRAK(h)/MAPKAPK5; compound at 100 μM, read-out: PRAK(h)/MAPKAPK5 kinase activity (human kinase inhibition data)) was 40%, the activity at 1 µM (TrkA(h); compound at 1 μM) was 106% and the activity at 10 µM (TrkA(h); compound at 10 μM) was 123%. For the same molecule, the activity at 100 µM (TrkA(h); compound at 100 μM) was 41%, the activity at 1 µM (mTOR(h); compound at 1 μM) was 103% and the activity at 10 µM (mTOR(h); compound at 10 μM) was 104%. For the same molecule, the activity at 100 µM (mTOR(h); compound at 100 μM) was 70%, the “specificity: effect on the overwhelming majority of the 113 human kinases” value (113 unique human kinases) was “little to no effect” and the “number of kinases exhibiting dose dependent inhibition” value (113 unique human kinases; of 113 human kinases) was 7. The “number of kinases with agonism observed” value (113 unique human kinases; of 113 human kinases, none relevant in human airway smooth muscle) was 4, the “modulation … (agonist/antagonist)” value (Gα12) was “inhibition” and the pAKT [2, 3] was “decreased”. The pMLC [1, 4] was “decreased”.
